Activity calls are given as the source filed them.
What was measured:
[1] = biological target: DNA dC->dU-editing enzyme APOBEC-3G (Homo sapiens, UniProt Q9HC16); format: functional;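 further: Dose-response counterscreen measuring inhibition of APOBEC3G DNA deaminase activity, run while confirming APOBEC3A inhibitors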
[2] = biological target: DNA dC->dU-editing enzyme APOBEC-3A (Homo sapiens, UniProt P31941); experiment: Dose Response confirmation of small molecule APOBEC3A DNA Deaminase Inhibitors via a fluorescence-based single-stranded DNA deaminase assay. [Related pubchem assays (depositor defined):AID493011, AID493024]; format: functional
[3] = viability of uninfected HEp-2 cells – cell-based, HTS, cytotoxicity control for RSV inhibitor project, dose response (AID 2410); format: functional; conditions: human respiratory syncytial virus
[4] = biological target: T1, Heat shock factor protein 1 (Mus musculus, UniProt P38532); experiment: decrease of HSF1-responsive luciferase luminescence – cell-based, NIH3T3, dose retest, confirmation (AID 2382); format: functional;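 further: NIH3T3 fibroblasts with HSF1-driven luciferase reporter stressed by proteasome inhibitor MG132; luminescence from HSF1-driven luciferase expression after 8 hours of MG132 stress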
T1 sequence (P38532 whole entry): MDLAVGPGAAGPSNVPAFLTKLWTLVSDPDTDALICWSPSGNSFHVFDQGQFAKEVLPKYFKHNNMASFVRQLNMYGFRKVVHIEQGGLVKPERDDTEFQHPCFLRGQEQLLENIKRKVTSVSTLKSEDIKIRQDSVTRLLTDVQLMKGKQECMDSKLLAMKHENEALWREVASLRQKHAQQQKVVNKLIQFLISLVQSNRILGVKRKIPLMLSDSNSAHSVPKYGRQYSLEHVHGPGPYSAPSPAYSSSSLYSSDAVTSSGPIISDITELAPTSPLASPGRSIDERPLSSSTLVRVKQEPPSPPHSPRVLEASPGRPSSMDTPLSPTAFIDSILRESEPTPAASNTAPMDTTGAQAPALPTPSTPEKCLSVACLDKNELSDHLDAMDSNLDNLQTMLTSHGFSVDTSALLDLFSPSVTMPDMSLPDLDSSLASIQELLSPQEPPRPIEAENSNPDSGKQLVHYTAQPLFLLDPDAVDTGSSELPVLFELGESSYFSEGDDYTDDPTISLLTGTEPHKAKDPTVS

[5] = A Cell Based Secondary Assay To Explore Cytotoxicity of Compounds that Sensitize Mycobacterium Tuberculosis to Beta-Lactam Antibiotics.; format: functional
CAAX prenyl protease 2 = biological target: T2, CAAX prenyl protease 2 (Saccharomyces cerevisiae S288c, UniProt Q03530); format: biochemical
T2 sequence (Q03530 whole entry): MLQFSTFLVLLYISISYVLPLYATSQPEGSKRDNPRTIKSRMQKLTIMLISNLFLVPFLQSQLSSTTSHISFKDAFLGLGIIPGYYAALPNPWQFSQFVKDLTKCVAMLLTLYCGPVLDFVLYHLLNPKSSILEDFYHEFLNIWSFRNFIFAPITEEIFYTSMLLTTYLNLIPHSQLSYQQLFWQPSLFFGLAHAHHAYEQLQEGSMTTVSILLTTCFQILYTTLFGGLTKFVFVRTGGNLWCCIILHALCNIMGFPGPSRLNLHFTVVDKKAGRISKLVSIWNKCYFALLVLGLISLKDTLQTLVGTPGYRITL

Mucolipin-3 = biological target: T3, Mucolipin-3 (Homo sapiens, UniProt Q8TDD5); experiment: Dose response cell-based high-throughput screening assay for agonists of the transient receptor potential channel ML3 (TRPML3). [Related pubchem assays: 1526, 1424, 1448 ]; format: functional
T3 sequence (Q8TDD5 whole entry): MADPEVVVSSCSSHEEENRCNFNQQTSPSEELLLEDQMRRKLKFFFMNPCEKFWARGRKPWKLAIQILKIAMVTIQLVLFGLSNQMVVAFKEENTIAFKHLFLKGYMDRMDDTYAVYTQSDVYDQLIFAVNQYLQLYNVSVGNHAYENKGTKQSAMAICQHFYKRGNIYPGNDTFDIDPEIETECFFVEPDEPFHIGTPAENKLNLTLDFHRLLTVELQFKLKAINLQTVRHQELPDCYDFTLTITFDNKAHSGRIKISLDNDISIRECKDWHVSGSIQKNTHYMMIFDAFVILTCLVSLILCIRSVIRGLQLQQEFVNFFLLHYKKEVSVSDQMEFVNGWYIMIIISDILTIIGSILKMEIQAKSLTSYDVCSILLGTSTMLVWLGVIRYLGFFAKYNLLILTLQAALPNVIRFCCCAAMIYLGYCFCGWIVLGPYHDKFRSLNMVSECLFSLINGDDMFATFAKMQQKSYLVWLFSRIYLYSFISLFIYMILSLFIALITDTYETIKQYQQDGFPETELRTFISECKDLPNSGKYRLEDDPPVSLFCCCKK

Ion channel NompC = Ion channel NompC (Danio rerio, UniProt Q7T1G6); experiment: Fluorescence counterscreen assay for TRPML3 agonists: dose response cell-based high-throughput screening assay to identify agonists of the transient receptor potential channel N1 (TRPN1). [Related pubchem assays: 1526, 1424, 1448 ]; format: functional
[6] = biological target: G-protein coupled receptor 55 (Homo sapiens, UniProt Q9Y2T6); experiment: inhibition of LPI-stimulated GPR55 beta-arrestin translocation – imaging, U2OS, beta-arrestin-GFP, LPI agonist, primary screen (AID 2013); format: functional;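 further: antagonist potency measured as reduced agonist-driven arrestin aggregation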
Cytochrome P450 2D6 = Cytochrome P450 2D6 (Homo sapiens, UniProt P10635);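 further: CYP2D6 member of a cytochrome P450 panel assay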
[7] = biological target: T4, Calpain-2 catalytic subunit (Sus scrofa, UniProt P43367); experiment: m-calpain protease blockers, concentration series – biochemical, fluorogenic peptide substrate, dose response (AID 1420); format: functional
T4 sequence (P43367 whole entry): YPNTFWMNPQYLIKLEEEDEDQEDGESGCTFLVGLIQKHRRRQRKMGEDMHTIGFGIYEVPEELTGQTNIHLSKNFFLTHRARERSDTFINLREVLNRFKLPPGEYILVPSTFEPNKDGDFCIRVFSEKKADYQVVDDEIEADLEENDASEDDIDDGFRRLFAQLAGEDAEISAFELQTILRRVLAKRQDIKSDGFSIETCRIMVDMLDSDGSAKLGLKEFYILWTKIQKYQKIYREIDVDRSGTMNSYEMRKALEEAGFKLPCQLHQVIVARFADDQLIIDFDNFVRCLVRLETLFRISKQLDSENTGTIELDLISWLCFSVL

[8] = biological target: FAD-linked sulfhydryl oxidase ALR (Homo sapiens, UniProt P55789); experiment: ALR-catalysed DTT oxidation blockers – biochemical, H2O2 detection, luminescence, cherry-pick, dose response (AID 493248)
Leucine aminopeptidase = biological target: T5, Leucine aminopeptidase (Plasmodium falciparum 3D7, UniProt Q8IL11); experiment: P. falciparum M17LAP inhibitors, primary screen, biochemical, fluorogenic H-Leu-NHMec substrate, 1536-well (AID 1619); format: functional
T5 sequence (Q8IL11 whole entry): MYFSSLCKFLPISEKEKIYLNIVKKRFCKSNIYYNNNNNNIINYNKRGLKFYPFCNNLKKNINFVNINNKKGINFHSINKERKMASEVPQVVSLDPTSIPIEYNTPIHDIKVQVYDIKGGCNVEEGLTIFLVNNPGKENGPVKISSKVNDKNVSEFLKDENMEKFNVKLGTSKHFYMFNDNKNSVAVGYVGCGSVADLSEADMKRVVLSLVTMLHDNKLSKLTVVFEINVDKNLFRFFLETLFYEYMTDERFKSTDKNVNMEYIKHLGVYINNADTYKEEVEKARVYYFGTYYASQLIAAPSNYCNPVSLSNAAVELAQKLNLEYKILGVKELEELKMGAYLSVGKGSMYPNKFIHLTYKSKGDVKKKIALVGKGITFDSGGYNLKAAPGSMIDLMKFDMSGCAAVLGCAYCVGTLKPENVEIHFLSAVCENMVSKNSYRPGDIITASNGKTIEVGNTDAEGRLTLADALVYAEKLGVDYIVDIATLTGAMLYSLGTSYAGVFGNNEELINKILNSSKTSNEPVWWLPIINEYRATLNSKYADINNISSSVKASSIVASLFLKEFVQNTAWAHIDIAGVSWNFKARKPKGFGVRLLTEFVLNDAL

[9] = biological target: T6, DNA repair protein RAD52 homolog (Homo sapiens, UniProt P43351); format: functional, biochemical
T6 sequence (P43351 whole entry): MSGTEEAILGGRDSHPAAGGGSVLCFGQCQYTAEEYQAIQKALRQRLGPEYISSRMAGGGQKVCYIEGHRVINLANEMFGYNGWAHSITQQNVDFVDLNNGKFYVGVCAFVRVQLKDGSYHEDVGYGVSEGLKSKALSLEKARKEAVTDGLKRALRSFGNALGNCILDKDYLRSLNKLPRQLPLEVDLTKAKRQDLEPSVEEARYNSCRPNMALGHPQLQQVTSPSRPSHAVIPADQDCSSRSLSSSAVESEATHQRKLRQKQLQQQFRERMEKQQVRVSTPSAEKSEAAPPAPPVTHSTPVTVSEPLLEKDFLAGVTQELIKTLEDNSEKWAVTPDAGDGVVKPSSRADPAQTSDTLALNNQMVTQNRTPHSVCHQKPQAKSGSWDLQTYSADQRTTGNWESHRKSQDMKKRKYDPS

[10] = NIH3T3 cell viability loss – ATP luminescence, mouse fibroblasts, counter-screen, dose response (AID 2010); format: functional, cell-based;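 further: cells exposed to compound for about 90 hours before reading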
INS1 = experiment: INS-1E survival protection against cytokine death – cell-based, luminescence, retest, dose response (AID 449756); format: functional; conditions: Rattus norvegicus;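 further: cell death triggered by IL-1 beta plus TNF-alpha plus IFN-gamma mixture; protective hits raise ATP signal compared with cytokine alone wells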
[11] = biological target: T7, Ubiquitin-conjugating enzyme E2 N (Homo sapiens, UniProt P61088); format: functional;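 further: Dose-response confirmation in a TR-FRET assay detecting UBC13-driven polyubiquitin chain formation, inhibition measured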
T7 sequence (P61088 whole entry): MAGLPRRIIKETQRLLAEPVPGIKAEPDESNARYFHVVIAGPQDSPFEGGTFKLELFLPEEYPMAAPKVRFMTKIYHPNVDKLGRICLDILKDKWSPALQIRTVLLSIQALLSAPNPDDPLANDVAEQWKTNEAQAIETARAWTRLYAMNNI

[12] = Trypanosoma cruzi growth suppression in host cells – NIH3T3 host cells, beta-gal luminescence, confirmation (AID 2044); format: functional, cell-based;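 further: intracellular parasites grown in NIH/3T3 mouse fibroblasts as host cells; luminescent beta-galactosidase reporter signal from transgenic T. cruzi replicating inside host cells; inhibitors lower the luminescence signal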
Estrogen receptor = biological target: T8, Estrogen receptor (Homo sapiens, UniProt P03372);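 further: potency for inhibiting coactivator peptide recruitment to the receptor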
T8 sequence (P03372 whole entry): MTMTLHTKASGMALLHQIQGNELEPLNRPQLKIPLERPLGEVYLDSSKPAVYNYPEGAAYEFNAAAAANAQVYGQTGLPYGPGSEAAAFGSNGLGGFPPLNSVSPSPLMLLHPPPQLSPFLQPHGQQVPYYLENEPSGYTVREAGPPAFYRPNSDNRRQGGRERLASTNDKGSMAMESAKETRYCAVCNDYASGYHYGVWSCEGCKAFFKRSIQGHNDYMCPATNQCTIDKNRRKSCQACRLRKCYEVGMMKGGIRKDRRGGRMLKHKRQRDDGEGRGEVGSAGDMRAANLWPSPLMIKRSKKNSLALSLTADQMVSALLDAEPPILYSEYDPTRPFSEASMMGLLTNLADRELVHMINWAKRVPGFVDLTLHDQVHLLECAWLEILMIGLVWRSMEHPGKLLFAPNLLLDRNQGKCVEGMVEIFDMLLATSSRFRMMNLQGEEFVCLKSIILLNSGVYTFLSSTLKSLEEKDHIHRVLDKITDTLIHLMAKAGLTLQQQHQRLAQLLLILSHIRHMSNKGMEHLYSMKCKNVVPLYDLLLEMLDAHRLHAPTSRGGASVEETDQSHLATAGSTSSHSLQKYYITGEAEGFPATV

H9c2 = experiment: cells; format: functional, cell-based; conditions: Rattus norvegicus, H9c2, Myocardium;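 further: confirmatory concentration-response retest of ultra-high-throughput screening hits for modulation of myocardial damage; cell death induced by hydrogen peroxide oxidative stress; compound pretreatment for 60 min then peroxide exposure for 2 h; potency is for protecting the cells against peroxide damage rather than for killing them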

Chain of Ion channel NompC (Q7T1G6 whole entry): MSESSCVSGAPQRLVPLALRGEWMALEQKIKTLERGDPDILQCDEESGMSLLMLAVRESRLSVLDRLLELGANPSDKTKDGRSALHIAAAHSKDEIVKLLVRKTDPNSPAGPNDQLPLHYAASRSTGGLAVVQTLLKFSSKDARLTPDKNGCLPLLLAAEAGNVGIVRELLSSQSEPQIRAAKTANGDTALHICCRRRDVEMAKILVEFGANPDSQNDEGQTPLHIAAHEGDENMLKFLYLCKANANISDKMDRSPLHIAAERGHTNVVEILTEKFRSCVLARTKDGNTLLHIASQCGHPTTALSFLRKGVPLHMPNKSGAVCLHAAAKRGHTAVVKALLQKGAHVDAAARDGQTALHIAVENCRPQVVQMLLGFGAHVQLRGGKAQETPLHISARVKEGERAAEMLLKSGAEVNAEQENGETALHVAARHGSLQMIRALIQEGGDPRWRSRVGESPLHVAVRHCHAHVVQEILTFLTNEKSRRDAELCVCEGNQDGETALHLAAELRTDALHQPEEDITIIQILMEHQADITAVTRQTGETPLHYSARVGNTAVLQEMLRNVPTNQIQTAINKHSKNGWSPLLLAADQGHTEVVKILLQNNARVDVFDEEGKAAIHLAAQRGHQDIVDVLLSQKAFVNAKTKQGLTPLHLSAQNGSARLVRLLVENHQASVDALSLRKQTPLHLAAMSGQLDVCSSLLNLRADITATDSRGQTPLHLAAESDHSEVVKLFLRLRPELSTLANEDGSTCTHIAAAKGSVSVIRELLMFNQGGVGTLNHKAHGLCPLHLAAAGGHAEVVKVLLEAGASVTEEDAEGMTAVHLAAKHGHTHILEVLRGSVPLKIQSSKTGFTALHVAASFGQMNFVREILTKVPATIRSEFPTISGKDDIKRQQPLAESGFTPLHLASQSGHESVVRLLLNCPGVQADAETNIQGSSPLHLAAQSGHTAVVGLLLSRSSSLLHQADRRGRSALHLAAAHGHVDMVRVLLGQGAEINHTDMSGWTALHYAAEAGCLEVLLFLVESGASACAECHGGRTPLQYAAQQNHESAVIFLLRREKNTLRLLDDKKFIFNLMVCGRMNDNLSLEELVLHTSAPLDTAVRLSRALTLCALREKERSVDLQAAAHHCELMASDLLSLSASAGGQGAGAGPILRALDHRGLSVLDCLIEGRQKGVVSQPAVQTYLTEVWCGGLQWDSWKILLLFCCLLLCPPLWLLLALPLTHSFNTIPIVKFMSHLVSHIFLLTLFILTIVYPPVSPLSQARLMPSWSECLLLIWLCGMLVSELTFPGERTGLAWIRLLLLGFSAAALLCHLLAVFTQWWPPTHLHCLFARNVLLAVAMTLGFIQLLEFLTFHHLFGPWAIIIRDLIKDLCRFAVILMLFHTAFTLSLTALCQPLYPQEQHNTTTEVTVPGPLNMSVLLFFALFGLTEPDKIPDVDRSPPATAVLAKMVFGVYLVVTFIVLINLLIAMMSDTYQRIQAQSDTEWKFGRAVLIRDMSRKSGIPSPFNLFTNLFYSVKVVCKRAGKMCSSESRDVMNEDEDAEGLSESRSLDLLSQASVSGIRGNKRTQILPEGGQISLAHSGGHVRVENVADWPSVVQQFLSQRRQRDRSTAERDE
Chain of DNA dC->dU-editing enzyme APOBEC-3A (P31941 whole entry): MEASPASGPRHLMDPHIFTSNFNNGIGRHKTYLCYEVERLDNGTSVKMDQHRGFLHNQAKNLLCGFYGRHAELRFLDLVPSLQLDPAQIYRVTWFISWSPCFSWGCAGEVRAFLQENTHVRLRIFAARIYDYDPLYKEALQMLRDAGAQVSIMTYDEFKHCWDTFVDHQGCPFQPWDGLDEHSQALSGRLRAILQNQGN
Chain of DNA dC->dU-editing enzyme APOBEC-3G (Q9HC16 whole entry): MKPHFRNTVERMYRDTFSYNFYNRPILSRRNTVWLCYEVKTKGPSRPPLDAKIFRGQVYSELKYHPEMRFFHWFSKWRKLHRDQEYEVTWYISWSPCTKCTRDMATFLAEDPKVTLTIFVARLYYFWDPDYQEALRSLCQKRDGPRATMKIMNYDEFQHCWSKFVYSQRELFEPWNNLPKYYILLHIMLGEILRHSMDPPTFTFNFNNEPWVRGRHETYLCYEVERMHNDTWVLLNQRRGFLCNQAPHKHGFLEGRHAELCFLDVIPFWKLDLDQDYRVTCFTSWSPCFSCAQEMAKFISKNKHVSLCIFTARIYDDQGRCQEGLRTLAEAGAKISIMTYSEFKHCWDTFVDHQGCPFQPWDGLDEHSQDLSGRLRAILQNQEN
Chain of FAD-linked sulfhydryl oxidase ALR (P55789 whole entry): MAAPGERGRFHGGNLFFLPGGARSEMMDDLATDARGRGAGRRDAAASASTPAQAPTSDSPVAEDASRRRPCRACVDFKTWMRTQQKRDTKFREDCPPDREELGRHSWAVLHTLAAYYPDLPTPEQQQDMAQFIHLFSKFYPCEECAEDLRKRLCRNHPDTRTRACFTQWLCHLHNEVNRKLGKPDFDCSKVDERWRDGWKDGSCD
Chain of Cytochrome P450 2D6 (P10635 whole entry): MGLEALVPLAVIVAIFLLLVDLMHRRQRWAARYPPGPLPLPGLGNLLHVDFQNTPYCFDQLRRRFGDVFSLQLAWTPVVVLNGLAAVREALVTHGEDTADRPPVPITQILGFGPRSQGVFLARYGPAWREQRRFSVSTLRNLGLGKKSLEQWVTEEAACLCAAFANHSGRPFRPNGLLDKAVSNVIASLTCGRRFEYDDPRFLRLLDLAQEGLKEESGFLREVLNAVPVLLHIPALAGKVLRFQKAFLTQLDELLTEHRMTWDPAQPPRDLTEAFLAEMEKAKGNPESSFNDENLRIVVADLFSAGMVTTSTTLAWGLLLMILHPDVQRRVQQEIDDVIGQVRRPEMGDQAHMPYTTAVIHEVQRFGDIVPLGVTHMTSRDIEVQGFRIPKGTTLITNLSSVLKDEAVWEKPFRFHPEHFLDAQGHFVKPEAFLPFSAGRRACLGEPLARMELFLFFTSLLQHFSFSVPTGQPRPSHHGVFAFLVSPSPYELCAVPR
Chain of G-protein coupled receptor 55 (Q9Y2T6 whole entry): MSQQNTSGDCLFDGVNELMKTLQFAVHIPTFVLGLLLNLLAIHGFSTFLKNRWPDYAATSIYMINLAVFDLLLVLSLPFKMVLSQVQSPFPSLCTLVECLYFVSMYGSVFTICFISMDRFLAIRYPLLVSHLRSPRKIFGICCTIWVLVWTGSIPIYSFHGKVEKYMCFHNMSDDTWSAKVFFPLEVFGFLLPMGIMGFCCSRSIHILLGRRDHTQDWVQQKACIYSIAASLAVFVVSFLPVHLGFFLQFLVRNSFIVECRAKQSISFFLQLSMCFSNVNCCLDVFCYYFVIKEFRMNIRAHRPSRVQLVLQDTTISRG

CCN1/C(=C\C(C)=O)Sc2ccc(OC)cc21
IC50 [1]: 2.89 µM (active) | IC50 [2]: 2.69 µM (active)

Cc1cccc(C)c1-n1c(C)cc(/C=C2\NC(=O)NC2=O)c1C
IC50 (cells): 8.7 µM (active) | CC50 [3]: 24.6 µM (active) | EC50 [4]: > 195 µM (not active)

O=C(CCNc1ccc(F)cc1)c1cccc([N+](=O)[O-])c1
CC50 [5]: > 40 µM (active)

COc1ccc(-n2nc(C(=O)NCC(=O)N(C)Cc3ccccc3)c3ccccc3c2=O)cc1
AC50 (CAAX prenyl protease 2): 70.8 µM (active)

COc1ccc(OC)c(S(=O)(=O)N2CCCc3ccccc32)c1
EC50 (Mucolipin-3): 3.58 µM (active) | EC50 (Ion channel NompC): > 29.9 µM (not active)

CCc1ccccc1N(CC)C(=O)CCc1nc(-c2ccc(C)cc2)no1
IC50 [6]: 1.06 µM (active)

O=C(CN1CCN(S(=O)(=O)c2ccc(F)cc2)CC1)Nc1ccc(Cl)c(C(F)(F)F)c1
EC50 (Mucolipin-3): 3.5 µM (active) | EC50 (Ion channel NompC): > 29.9 µM (not active) | AC50 (Cytochrome P450 2D6): 39.8 µM (inconclusive) | CC50 [3]: 4.99 µM (active)

O=S(=O)(N1CCCCC1)N1CCN(c2cc(Cl)ccc2Cl)CC1
EC50 (Mucolipin-3): 2.07 µM (active) | EC50 (Ion channel NompC): > 29.9 µM (not active) | IC50 [7]: 4.07 µM (not active)

O=S(=O)(c1ccccc1)N1CCC(c2nc(O)c3nnn(Cc4ccc5c(c4)OCCO5)c3n2)CC1
IC50 (cells): 18.4 µM (active) | CC50 [3]: 28.4 µM (active)

Cc1cc(C)c(S(=O)(=O)c2c(C)cccc2C)c(OCC(C)C)n1
EC50 (Mucolipin-3): 4.35 µM (active) | EC50 (Ion channel NompC): > 29.9 µM (not active)

Cc1[nH]c2ccccc2c1N=Nc1cccc(C(=O)O)c1
AC50 [8]: 0.663 µM (active) | IC50 (Leucine aminopeptidase): 80.8 µM (active)

CCn1c(SCC(=O)NC2CCCCC2)nc2ccccc2c1=O
IC50 [1]: 4.97 µM (active) | IC50 [2]: 5.15 µM (active)

Cc1ccc(C(=O)N/C(=C\c2ccc(-c3ccc(Cl)cc3)o2)C(=O)NCCCN(C)C)cc1
AC50 [9]: 18.5 µM (active) | EC50 [10]: > 30 µM (not active) | CC50 [5]: 11.2 µM (active) | AC50 (INS1): 7.74 µM (active) | IC50 [11]: > 20 µM (inactive) | EC50 [12]: 1.63 µM (active)

COc1ccc(C)cc1-n1nnnc1SCC(=O)NC(=O)NCc1ccco1
IC50 (Estrogen receptor): 9.48 µM (active)

CCN1C(=NCCN2CCOCC2)N[C@@H](c2ccccc2)C(C(=O)OC)=C1C
IC50 [1]: 4.54 µM (active) | IC50 [2]: 4.2 µM (active)

COc1ccc(Br)cc1/C=N/NC(=O)CNC(=O)/C=C/c1ccccc1
IC50 (H9c2): 15.3 µM (active) | CC50 [5]: 32.1 µM (active)

CC1CCN(Cc2c(C(=O)N/N=C/c3cccc(C(F)(F)F)c3)nnn2-c2nonc2N)CC1
AC50 (CAAX prenyl protease 2): 0.254 µM (active)

O=C(N/N=C/c1ccccc1C(=O)O)c1ccc(COc2cccc3cccnc23)cc1
IC50 (Leucine aminopeptidase): 18.4 µM (active)

C/C(N)=C(/C#N)C(=O)COC(=O)c1cccc(C)c1O
IC50 (cells): 9.45 µM (active)
